Experimental data: the NIST ThermoML archive (doi:10.1016/j.jct.2011.12.008)
± gives the expanded uncertainty stated by the source.

Experiment: xn = mol fraction of the nth substance listed
Conditions: 101 kPa, Liquid; for viscosity: Capillary tube (Ostwald / Ubbelohde) method; for mass density: Vibrating tube method

NCCCO [3-amino-1-propanol] + CCCCCCn1cc[n+](C)c1.F[B-](F)(F)F
Conditions	mass density [kg/m3]	viscosity [mPa·s]
293.15 K, x2 = 0	987.55 ± 0.23	39.29 ± 1.6
293.15 K, x2 = 0.0536	1010.87 ± 0.31	39.35 ± 1.6
293.15 K, x2 = 0.0969	1026.17 ± 0.32	42.89 ± 1.8
293.15 K, x2 = 0.202	1055.57 ± 0.38	49.26 ± 2.1
293.15 K, x2 = 0.3217	1080.32 ± 0.47	56.99 ± 2.4
293.15 K, x2 = 0.4942	1105.94 ± 0.62	77.82 ± 3.3
293.15 K, x2 = 0.6135	1118.92 ± 0.73	97.27 ± 4.2
293.15 K, x2 = 0.7276	1129.17 ± 0.85	125.01 ± 5.6
293.15 K, x2 = 0.8343	1137.49 ± 0.96	163.87 ± 7.5
293.15 K, x2 = 0.9204	1143.7 ± 1.1	192.2 ± 9.1
298.15 K, x2 = 0	983.55 ± 0.23	30.43 ± 1.3
298.15 K, x2 = 0.0536	1006.96 ± 0.3	30.8 ± 1.3
298.15 K, x2 = 0.0969	1022.3 ± 0.31	33.2 ± 1.4
298.15 K, x2 = 0.202	1051.74 ± 0.38	37.85 ± 1.6
298.15 K, x2 = 0.3217	1076.53 ± 0.47	44.61 ± 1.9
298.15 K, x2 = 0.4942	1102.24 ± 0.62	59.65 ± 2.5
298.15 K, x2 = 0.6135	1115.24 ± 0.73	74.53 ± 3.2
298.15 K, x2 = 0.7276	1125.66 ± 0.84	95.2 ± 4.1
298.15 K, x2 = 0.8343	1134.08 ± 0.95	123.47 ± 5.5
298.15 K, x2 = 0.9204	1140.23 ± 1.1	148.27 ± 6.8
303.15 K, x2 = 0	979.53 ± 0.23	23.87 ± 0.99
303.15 K, x2 = 0.0536	1003.04 ± 0.3	24.16 ± 1
303.15 K, x2 = 0.0969	1018.41 ± 0.31	26.02 ± 1.1
303.15 K, x2 = 0.202	1047.91 ± 0.38	29.45 ± 1.2
303.15 K, x2 = 0.3217	1072.75 ± 0.47	34.55 ± 1.4
303.15 K, x2 = 0.4942	1098.55 ± 0.61	46.03 ± 1.9
303.15 K, x2 = 0.6135	1111.63 ± 0.72	57.96 ± 2.4
303.15 K, x2 = 0.7276	1122.11 ± 0.83	73.65 ± 3.1
303.15 K, x2 = 0.8343	1130.63 ± 0.95	95.84 ± 4.2
303.15 K, x2 = 0.9204	1136.88 ± 1	115.79 ± 5.1
308.15 K, x2 = 0	975.51 ± 0.23	19.07 ± 0.79
308.15 K, x2 = 0.0536	999.11 ± 0.3	19.14 ± 0.79
308.15 K, x2 = 0.0969	1014.5 ± 0.31	20.58 ± 0.86
308.15 K, x2 = 0.202	1044.05 ± 0.37	23.41 ± 0.98
308.15 K, x2 = 0.3217	1068.95 ± 0.46	27.53 ± 1.1
308.15 K, x2 = 0.4942	1094.86 ± 0.61	36.45 ± 1.5
308.15 K, x2 = 0.6135	1108.04 ± 0.71	45.81 ± 1.9
308.15 K, x2 = 0.7276	1118.58 ± 0.83	58.09 ± 2.4
308.15 K, x2 = 0.8343	1127.18 ± 0.94	75.38 ± 3.2
308.15 K, x2 = 0.9204	1133.5 ± 1	91.04 ± 3.9
313.15 K, x2 = 0	971.47 ± 0.23	15.27 ± 0.63
313.15 K, x2 = 0.0536	995.18 ± 0.3	15.64 ± 0.65
313.15 K, x2 = 0.0969	1010.6 ± 0.3	16.63 ± 0.69
313.15 K, x2 = 0.202	1040.2 ± 0.37	18.74 ± 0.78
313.15 K, x2 = 0.3217	1065.16 ± 0.46	22.05 ± 0.92
313.15 K, x2 = 0.4942	1091.16 ± 0.6	29.14 ± 1.2
313.15 K, x2 = 0.6135	1104.43 ± 0.71	36.47 ± 1.5
313.15 K, x2 = 0.7276	1115.05 ± 0.82	46.32 ± 1.9
313.15 K, x2 = 0.8343	1123.73 ± 0.93	59.62 ± 2.5
313.15 K, x2 = 0.9204	1130.12 ± 1	71.6 ± 3
318.15 K, x2 = 0	967.43 ± 0.23	12.35 ± 0.51
318.15 K, x2 = 0.0536	991.28 ± 0.3	12.68 ± 0.52
318.15 K, x2 = 0.0969	1006.67 ± 0.3	13.6 ± 0.56
318.15 K, x2 = 0.202	1036.34 ± 0.37	15.76 ± 0.65
318.15 K, x2 = 0.3217	1061.36 ± 0.45	18.42 ± 0.76
318.15 K, x2 = 0.4942	1087.47 ± 0.6	23.9 ± 1
318.15 K, x2 = 0.6135	1100.82 ± 0.7	28.64 ± 1.2
318.15 K, x2 = 0.7276	1111.54 ± 0.82	37.85 ± 1.6
318.15 K, x2 = 0.8343	1120.28 ± 0.93	48.22 ± 2
318.15 K, x2 = 0.9204	1126.73 ± 1	58.5 ± 2.5
323.15 K, x2 = 0	963.37 ± 0.23	10.22 ± 0.42
323.15 K, x2 = 0.0536	987.32 ± 0.3	10.61 ± 0.44
323.15 K, x2 = 0.0969	1002.75 ± 0.3	11.16 ± 0.46
323.15 K, x2 = 0.202	1032.48 ± 0.36	12.61 ± 0.52
323.15 K, x2 = 0.3217	1057.55 ± 0.45	15.89 ± 0.66
323.15 K, x2 = 0.4942	1083.77 ± 0.59	19.73 ± 0.82
323.15 K, x2 = 0.6135	1097.21 ± 0.7	24.2 ± 1
323.15 K, x2 = 0.7276	1108.02 ± 0.81	31.19 ± 1.3
323.15 K, x2 = 0.8343	1116.83 ± 0.92	39.61 ± 1.7
323.15 K, x2 = 0.9204	1123.36 ± 1	47.9 ± 2
328.15 K, x2 = 0	959.3 ± 0.23	8.535 ± 0.35
328.15 K, x2 = 0.0536	983.35 ± 0.3	8.7 ± 0.36
328.15 K, x2 = 0.0969	998.8 ± 0.3	9.325 ± 0.38
328.15 K, x2 = 0.202	1028.62 ± 0.36	10.96 ± 0.45
328.15 K, x2 = 0.3217	1053.76 ± 0.44	13.04 ± 0.54
328.15 K, x2 = 0.4942	1080.08 ± 0.59	16.58 ± 0.69
328.15 K, x2 = 0.6135	1093.61 ± 0.69	19.92 ± 0.83
328.15 K, x2 = 0.7276	1104.51 ± 0.8	26.05 ± 1.1
328.15 K, x2 = 0.8343	1113.4 ± 0.91	33.11 ± 1.4
328.15 K, x2 = 0.9204	1119.94 ± 1	41.26 ± 1.7
333.15 K, x2 = 0	955.22 ± 0.23	7.123 ± 0.29
333.15 K, x2 = 0.0536	979.37 ± 0.3	7.144 ± 0.29
333.15 K, x2 = 0.0969	994.86 ± 0.3	7.836 ± 0.32
333.15 K, x2 = 0.202	1024.75 ± 0.36	8.918 ± 0.37
333.15 K, x2 = 0.3217	1049.98 ± 0.44	10.47 ± 0.43
333.15 K, x2 = 0.4942	1076.4 ± 0.58	13.86 ± 0.57
333.15 K, x2 = 0.6135	1090.05 ± 0.69	17.14 ± 0.71
333.15 K, x2 = 0.7276	1101.02 ± 0.8	21.81 ± 0.91
333.15 K, x2 = 0.8343	1109.97 ± 0.91	27.5 ± 1.2
333.15 K, x2 = 0.9204	1116.55 ± 1	37.45 ± 1.6
338.15 K, x2 = 0	951.14 ± 0.23	6.045 ± 0.25
338.15 K, x2 = 0.0536	975.37 ± 0.3	6.221 ± 0.25
338.15 K, x2 = 0.0969	990.91 ± 0.3	6.676 ± 0.28
338.15 K, x2 = 0.202	1020.88 ± 0.36	7.634 ± 0.31
338.15 K, x2 = 0.3217	1046.21 ± 0.44	9.153 ± 0.38
338.15 K, x2 = 0.4942	1072.72 ± 0.58	11.94 ± 0.49
338.15 K, x2 = 0.6135	1086.5 ± 0.68	14.71 ± 0.61
338.15 K, x2 = 0.7276	1097.55 ± 0.79	18.64 ± 0.77
338.15 K, x2 = 0.8343	1106.57 ± 0.9	23.24 ± 0.96
338.15 K, x2 = 0.9204	1113.17 ± 1	32.09 ± 1.4
